# Several values for one entry are separate records, joined by “and”; a condition that tells them apart may be missing. Equal values may be shown once.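 Test compounds were applied to cells in 96-well plates for 48 hours at 5 doses. Here, GI50 denotes the concentration required for 50% inhibition of growth. TGI is the concentration that stops growth completely.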
# Experiments:
# Experiment in all cases: DTP human tumour cell line panel, 48 h
# UACC-62 melanoma = tested on: UACC-62 melanoma
# OVCAR-3 ovarian = tested on: OVCAR-3 ovarian
# MALME-3M melanoma = tested on: MALME-3M melanoma
# OVCAR-5 ovarian = tested on: OVCAR-5 ovarian
# NCI-H460 lung = tested on: NCI-H460 lung
# SK-MEL-5 melanoma = tested on: SK-MEL-5 melanoma
# OVCAR-4 ovarian = tested on: OVCAR-4 ovarian
# K-562 leukemia = tested on: K-562 leukemia
# HOP-18 NSCLC = tested on: HOP-18 NSCLC
# SNB-75 CNS = tested on: SNB-75 CNS
# SF-295 CNS = tested on: SF-295 CNS
# LOX IMVI melanoma = tested on: LOX IMVI melanoma
# CAKI-1 renal = tested on: CAKI-1 renal
# TK-10 renal = tested on: TK-10 renal
SMILES,TGI (UACC-62 melanoma),TGI (OVCAR-3 ovarian),TGI (MALME-3M melanoma),TGI (OVCAR-5 ovarian),TGI (NCI-H460 lung),TGI (SK-MEL-5 melanoma),TGI (OVCAR-4 ovarian),TGI (K-562 leukemia),TGI (HOP-18 NSCLC),TGI (SNB-75 CNS),TGI (SF-295 CNS),TGI (LOX IMVI melanoma),TGI (CAKI-1 renal),TGI (TK-10 renal),GI50 (UACC-62 melanoma),GI50 (OVCAR-3 ovarian),GI50 (MALME-3M melanoma),GI50 (OVCAR-5 ovarian),GI50 (NCI-H460 lung),GI50 (OVCAR-4 ovarian)
CCCCCCCC/C=C\CCCCCCCCCCCC(=O)O,102 µM,36.5 µM,> 125 µM,> 125 µM,34.9 µM,57.5 µM,> 115 µM,47.4 µM,> 125 µM,113 µM,116 µM,70.8 µM,> 117 µM,–,–,–,–,–,–,–
N=c1nnc2ccc(Cl)cc2n1O,> 100 µM,–,> 100 µM,> 100 µM,–,> 100 µM,–,> 100 µM,–,> 100 µM,> 100 µM,> 100 µM,> 100 µM,> 100 µM,–,–,–,–,–,–
O=C1C=C[C@@H](COC2OC(CO)C(O)C(O)C2O)O1 (some centres undefined),12 µM and 22.6 µM,22.4 µM and 31.5 µM,31.9 µM,50.4 µM and 36.8 µM,14.8 µM and 32.3 µM,33.9 µM,28.2 µM and 33.6 µM,23.6 µM and > 100 µM,> 100 µM,29.7 µM and 31.8 µM,41.8 µM and 45 µM,15.8 µM and 16.4 µM,40 µM,–,3.03 µM,10.6 µM,12.5 µM,28.5 µM,3.68 µM,13.2 µM
Nc1c(S(=O)(=O)O)cc2cc(S(=O)(=O)O)ccc2c1N=Nc1ccc(-c2ccc(N=Nc3c(N)c(S(=O)(=O)O)cc4cc(S(=O)(=O)O)ccc34)c(S(=O)(=O)O)c2)cc1,> 100 µM,> 100 µM,> 100 µM,> 100 µM,> 31.6 µM,> 100 µM,74.7 µM,> 100 µM,> 100 µM,> 100 µM,> 100 µM,> 100 µM,–,–,–,–,–,–,–,–
CCN(CC)CCNC(=O)c1cc2cc(NC(=O)c3cc4cc([N+](=O)[O-])ccc4[nH]3)ccc2[nH]1,87.5 µM,> 57 µM,–,> 100 µM,> 100 µM,> 100 µM,> 100 µM,–,–,> 100 µM,65.6 µM,> 100 µM,> 100 µM,48.6 µM,–,–,–,–,–,–
Cc1ccc(NC(=O)CC2Sc3ccccc3NC2=O)cc1C (centres undefined),> 100 µM,> 100 µM,> 100 µM,> 100 µM,> 100 µM,> 100 µM,> 100 µM,> 100 µM,> 100 µM,> 100 µM,> 100 µM,> 100 µM,> 100 µM,> 100 µM,–,–,–,–,–,–
Nc1nc(SCCC/C=C/I)nc2c1ncn2C1OC(COP(=O)(O)O)C(O)C1O (centres undefined),> 100 µM,> 100 µM,> 100 µM,> 100 µM,> 100 µM,> 100 µM,> 100 µM,> 100 µM,–,> 100 µM,> 100 µM,> 100 µM,–,> 100 µM,–,–,–,–,–,–
N#C/C(=C1/Sc2c(nc[nH]c2=O)N1c1ccccc1)c1nc2ccccc2[nH]1,> 100 µM,> 100 µM,> 100 µM,> 100 µM,> 100 µM,> 100 µM,> 100 µM,> 100 µM,–,> 100 µM,> 100 µM,–,> 100 µM,> 100 µM,–,–,–,–,–,–
Oc1ccc(-c2nc3ccc(Br)cc3s2)cc1,27.4 µM,31.8 µM,90.9 µM,63.8 µM,52.8 µM,60.2 µM,–,73.1 µM,–,–,33 µM,30.1 µM,33.7 µM,35.9 µM,–,–,–,–,–,–
CC1=C(Cl)C=CP(=O)(Oc2ccccc2)C1 (centres undefined),> 100 µM,> 100 µM,> 100 µM,> 100 µM,> 100 µM,> 100 µM,> 100 µM,> 10 µM,89.6 µM,–,> 100 µM,> 100 µM,> 100 µM,–,–,–,–,–,–,–
COc1ccc(/C=c2\sc3n(c2=O)CCN=3)cc1,> 100 µM,> 100 µM,> 100 µM,> 100 µM,> 100 µM,> 100 µM,> 100 µM,> 100 µM,> 100 µM,> 100 µM,> 100 µM,> 100 µM,–,> 100 µM,–,–,–,–,–,–
